Reference: PubChem BioAssay (NCI)
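All cell lines were grown in 96-well plates and treated with compound for 48 hours. GI50 is the concentration that inhibits growth by half. At the TGI there is no net growth.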

Experiments:
Assay in all cases: NCI-60 cell line screen, 48 h
COLO 205 colon = tested on: COLO 205 colon
EKVX NSCLC = tested on: EKVX NSCLC
HOP-92 NSCLC = tested on: HOP-92 NSCLC
KM20L2 colon = tested on: KM20L2 colon
SF-295 CNS = tested on: SF-295 CNS
SF-539 CNS = tested on: SF-539 CNS
SNB-19 CNS = tested on: SNB-19 CNS
MCF7 breast = tested on: MCF7 breast
MDA-N = tested on: MDA-N
T-47D breast = tested on: T-47D breast

| Compound | TGI (COLO 205 colon) | TGI (EKVX NSCLC) | TGI (HOP-92 NSCLC) | TGI (KM20L2 colon) | TGI (SF-295 CNS) | TGI (SF-539 CNS) | TGI (SNB-19 CNS) | TGI (MCF7 breast) | TGI (MDA-N) | TGI (T-47D breast) | GI50 (COLO 205 colon) | GI50 (EKVX NSCLC) | GI50 (HOP-92 NSCLC) | GI50 (MCF7 breast) | GI50 (SF-295 CNS) | GI50 (SF-539 CNS) | GI50 (SNB-19 CNS) | GI50 (T-47D breast) |
| --- | --- | --- | --- | --- | --- | --- | --- | --- | --- | --- | --- | --- | --- | --- | --- | --- | --- | --- |
| CCOC(=O)CCc1c(C)c2c(OC(C)=O)cc(OC(C)=O)cc2oc1=O | > 100 µM | > 100 µM | > 100 µM | > 100 µM | > 100 µM | > 100 µM | > 100 µM |  |  |  |  |  |  |  |  |  |  |  |
| Cc1cc(C)n(CCNCCn2nc(C)cc2C)n1 | > 100 µM | > 100 µM | > 100 µM | > 100 µM | > 100 µM | > 100 µM | > 100 µM |  |  |  |  |  |  |  |  |  |  |  |
| CN=NN(C)C(=O)NC | > 100 µM |  | > 100 µM | > 100 µM | > 100 µM | > 100 µM | > 100 µM |  |  |  |  |  |  |  |  |  |  |  |
| Nc1nc(Cl)cc(NCCO)n1 | > 100 µM | > 100 µM | > 100 µM |  | > 100 µM | > 100 µM | > 100 µM | > 100 µM | > 100 µM | > 100 µM |  |  |  |  |  |  |  |  |
| COC(=O)/C=C/C1C(C(=O)OC)C2(C(=O)OC)CCC1(C(=O)OC)N2 (stereo unspecified) | > 100 µM | > 100 µM | > 100 µM | > 100 µM | > 100 µM | > 100 µM | > 100 µM |  |  |  |  |  |  |  |  |  |  |  |
| O=C(O)c1cccc(OCCO)c1 | > 100 µM | > 100 µM | > 100 µM |  | > 100 µM | > 100 µM | > 100 µM | > 100 µM | > 100 µM | > 100 µM |  |  |  |  |  |  |  |  |
| O=C(O)c1c(-c2nccc3ccccc23)[nH]c(-c2ccccc2)c1S(=O)(=O)O | > 100 µM | > 100 µM | > 100 µM |  | > 100 µM | > 100 µM | > 100 µM | > 100 µM | > 100 µM | > 100 µM |  |  |  |  |  |  |  |  |
| O=S(O)CCCCSSCc1ccccc1CSSCCCCS(=O)O | 31.2 µM | > 100 µM | 74.7 µM | > 100 µM | 49.8 µM | 64.2 µM | > 100 µM |  |  |  |  |  |  |  |  |  |  |  |
| N#CC(C#N)=c1[nH]c2cccc3c2-c2c(cccc2c3=C(C#N)C#N)[nH]1 | > 100 µM | > 100 µM | > 100 µM | > 100 µM | > 100 µM | > 100 µM | > 100 µM |  |  |  |  |  |  |  |  |  |  |  |
| C#C[C@]1(O)CC[C@H]2[C@@H]3CC=C4c5sc(Nc6ccccc6)nc5CC[C@]4(C)[C@H]3CC[C@@]21C | 5.39 µM | 13.8 µM | 29.7 µM |  | 0.649 µM | 1.52 µM | 7.16 µM | 4.28 µM |  | 6.94 µM | 2.18 µM | 2.83 µM | 3.81 µM | 1.57 µM | 0.244 µM | 0.37 µM | 1.99 µM | 2.05 µM |
| O=C1/C(=C\c2cccn2Cc2ccccc2)c2ccccc2N1c1c(Cl)cccc1Cl | 6.26 µM | > 28.1 µM | 28.8 µM |  | > 100 µM | > 100 µM | > 100 µM | > 100 µM |  | 1.93 µM | 1.36 µM | 1.42 µM | 1.52 µM | 0.0898 µM | > 100 µM | > 100 µM | > 100 µM | 0.266 µM |
| O=C(Nc1ccc(Cl)cc1F)c1cc(Br)ccc1O | 21.5 µM | > 26.1 µM | 0.67 µM |  | 3.51 µM | 7.29 µM | > 100 µM | > 100 µM |  | 4.46 µM | 7.65 µM | 1.46 µM | 0.183 µM | 1.26 µM | 1.65 µM | 0.804 µM | 0.508 µM | 0.56 µM |
| O=C(CCC(=O)Nc1cccc(Cl)c1)CC(=O)c1ccc(Cl)cc1 | > 100 µM |  | > 100 µM | > 100 µM | > 100 µM | > 100 µM | > 100 µM |  |  |  |  |  |  |  |  |  |  |  |
| Cc1cc(NC(=O)c2ccc(C)c(Nc3nccc(-c4cccnc4)n3)c2)cc(-n2cnc(C)c2)c1 | 7.23 µM | 21.4 µM | 2.78 µM |  | 12.2 µM | 9.27 µM | 18.1 µM | 9.19 µM |  | 3.77 µM | 2.4 µM | 4.27 µM | 0.716 µM | 1.86 µM | 3.07 µM | 2.09 µM | 5.28 µM | 1.34 µM |
| COc1cc2c(cc1OC)C13CCN4CC5=CCOC6CC(=O)N2C1C6C5CC43O (stereo unspecified) | > 100 µM | > 100 µM | > 100 µM |  | > 100 µM | > 100 µM | > 100 µM | > 100 µM | > 100 µM | > 100 µM |  |  |  |  |  |  |  |  |
| OCCCCC#Cc1ccccc1C#Cc1cccc(O)c1 | 35.6 µM | 57 µM | 40.7 µM |  | 41.7 µM | 35.8 µM | 32.8 µM | > 100 µM |  | 34.7 µM | 19.7 µM | 23.5 µM | 19.8 µM | 35.7 µM | 21 µM | 17.5 µM | 15.5 µM | 14.4 µM |
| C#CC(=O)Nc1cccc(Nc2nc3c(c(NCc4ccccc4)n2)CCCC3)c1 | 1.14 µM | 1.99 µM | < 0.01 µM |  | 0.0361 µM | < 0.01 µM | 1.98 µM | 1.81 µM |  | 3.7 µM | 0.401 µM | 0.34 µM | < 0.01 µM | 0.296 µM | 0.0152 µM | < 0.01 µM | 0.591 µM | 0.964 µM |
| COC(COC(=O)N1CCN(C=O)CC1)C1=C(N2CC2)C(=O)C(C)=C(N2CC2)C1=O (stereo unspecified) | 0.897 µM | 10.9 µM | 0.919 µM |  | 4.55 µM | 0.342 µM | 13.4 µM | 1.07 µM |  | 22.4 µM |  |  |  |  |  |  |  |  |
| O=C(O)Cc1c(O)ccc2ccccc12 | > 100 µM | > 100 µM | > 100 µM |  | > 100 µM | > 100 µM | > 100 µM | > 100 µM | > 100 µM | > 100 µM |  |  |  |  |  |  |  |  |
| Fc1ccc(Nc2cc(-n3nnc4ccccc43)nc3ccccc23)cc1 | > 100 µM | > 82.6 µM | 34 µM |  | 41.5 µM | > 55.6 µM | > 100 µM | > 84.4 µM |  | > 100 µM | 5.74 µM | 31.8 µM | 14.4 µM | 29.8 µM | 13.4 µM | 24.6 µM |  |  |
| COc1ccc(CNc2c3ccccc3nc3ccccc23)cc1OC | 3.82 µM | 12.4 µM | 7.83 µM |  | 7.2 µM | 11.3 µM | 17.2 µM | 6.66 µM |  | 14.1 µM | 1.32 µM | 2.7 µM | 1.62 µM | 2.24 µM | 2.19 µM | 2.82 µM | 3.3 µM | 3.43 µM |
